Reference: US11155586B2, “Cystine knot scaffold platform” (Genentech, Inc., priority 2015, dated 2021)
Positions of bridges follow the written chain, without caps; N, C: chain ends. Residues, ends and D or L forms follow the SMILES beside them.

Experiments:
rabbit VEGF-A = target: T1, rabbit VEGF-A (Oryctolagus cuniculus, UniProt G1T1L9); experiment: SPR binding assay
T1 sequence (G1T1L9 1-398): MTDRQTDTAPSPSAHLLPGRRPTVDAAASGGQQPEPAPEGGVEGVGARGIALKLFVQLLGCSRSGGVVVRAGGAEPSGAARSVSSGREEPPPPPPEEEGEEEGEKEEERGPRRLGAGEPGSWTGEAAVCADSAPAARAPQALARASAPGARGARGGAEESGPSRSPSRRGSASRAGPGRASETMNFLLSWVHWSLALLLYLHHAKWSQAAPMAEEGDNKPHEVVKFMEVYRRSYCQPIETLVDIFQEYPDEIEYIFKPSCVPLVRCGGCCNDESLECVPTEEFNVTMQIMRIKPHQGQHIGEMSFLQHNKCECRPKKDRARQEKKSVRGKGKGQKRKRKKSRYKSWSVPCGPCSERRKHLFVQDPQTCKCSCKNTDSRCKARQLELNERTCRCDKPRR
Protocol: (§1) Depending on the format of the assay either a streptavidin sensor (SA) or a dextran-coated (CM5) sensor was utilized as described below.
(§2) For use with the SA sensor, VEGF-A was first biotinylated (no more than 2 biotin/VEGF-A) by incubating the protein with EZ-link NHS-PEG4-Biotin (Pierce) in a 1:1.5 molar ratio respectively, in PBS for 2 hours on ice. Reaction was then quenched by addition of 10 molar excess of Glycine pH 8.0 and the sample was buffer exchanged into PBS using an Amicon 0.5 mL 3000 MWCO ultra-centrifugal filters (EMD Millipore). The biotinylation state of the protein was verified by LC-MS analysis. Biotinylated VEGF-A was then captured on the surface until a resonance unit (RU) signal of about ˜400. For immobilization of VEGF-A on CM5 sensor, the surface was first activated with a mixture of N-ethyl-N′-(3-dimethylaminopropyl)carbodiimide hydrochloride and N-hydroxysuccinimide (EDC/NHS) according to the supplier instructions. VEGF-A was then diluted into coupling buffer (0.1 M Acetate Buffer, pH 5.0) and injected until the signal reached about ˜400 RU followed by a wash with 1 M ethanolamine pH 8.0 to quench remaining activated sites.
(§3) Following the capture step, a series of the peptide concentrations were prepared in HBS-EP buffer with matching DMSO concentrations to 0.1% and injected at a flow rate of […]. The resulting sensorgrams were then analyzed using a 1:1 binding model to obtain kinetic data and affinities using Scrubber 2.0 (BioLogic Software).

VEGF human 165 = target: T2, VEGF human 165 (Homo sapiens, UniProt P15692); experiment: SPR binding assay
T2 sequence (P15692 27-191 isoform P15692-4): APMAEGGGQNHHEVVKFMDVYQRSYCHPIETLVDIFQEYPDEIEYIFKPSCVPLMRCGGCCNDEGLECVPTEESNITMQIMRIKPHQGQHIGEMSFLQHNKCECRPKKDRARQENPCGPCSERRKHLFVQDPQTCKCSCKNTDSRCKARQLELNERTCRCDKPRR
Protocol: as §1, §2, §3

VEGF mouse 164 = target: T3, VEGF mouse 164 (Mus musculus, UniProt Q00731); experiment: SPR binding assay
T3 sequence (Q00731 27-190 isoform Q00731-2): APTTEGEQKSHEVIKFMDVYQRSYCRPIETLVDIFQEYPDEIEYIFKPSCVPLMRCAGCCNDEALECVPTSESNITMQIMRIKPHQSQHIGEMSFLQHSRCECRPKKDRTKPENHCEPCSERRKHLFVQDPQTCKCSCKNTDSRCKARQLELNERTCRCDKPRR
Protocol: as §1, §2, §3

rat VEGF-A = target: T4, rat VEGF-A (Rattus norvegicus, UniProt P16612); experiment: SPR binding assay
T4 sequence (P16612 27-139 limits assumed): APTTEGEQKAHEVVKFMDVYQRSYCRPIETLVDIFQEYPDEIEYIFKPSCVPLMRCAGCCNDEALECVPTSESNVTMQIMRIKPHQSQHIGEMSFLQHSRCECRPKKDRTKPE
Protocol: as §1, §2, §3

[1] = tested on: hVEGF-A mutants (Y21A, K48A, Q89A, F17A/M81A); experiment: SPR binding assay, hVEGF-A mutants; set-up: species or system human; kd: unit not given here
Protocol: as §1, §2, §3
The binding interface of VEGF_CKP9.54.90 on VEGF-A overlaps with that of the natural receptors and G6.31 antibody (FIGS. 7 and 8). […] However, K48A mutation enhanced the binding of VEGF_CKP9.54.90 by ˜2-3 fold, a behavior that is similar to that observed with the G6.31 antibody (Fuh et al. (2006) J. Biol. Chem. 281, 6625-6631).

hVEGF(8-109) = target: T5, hVEGF(8-109) (Homo sapiens, UniProt P15692); experiment: Spot phage ELISA; format: binding; settings: Table 26
T5 construct: hVEGF(8-109) or BSA were coated on 384-well MAXISORP™ immunoplates
T5 sequence (P15692 214-315): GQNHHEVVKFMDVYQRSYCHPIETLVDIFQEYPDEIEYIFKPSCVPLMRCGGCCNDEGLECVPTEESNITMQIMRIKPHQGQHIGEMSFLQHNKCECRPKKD
How it was run: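 After four selection rounds, phage supernatants from single clones (1:3 in PBT) were added to wells coated with hVEGF(8-109) or BSA; binding detected with anti-M13-HRP and TMB. Positive clones had target signal more than 3 times BSA background.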

trypsin [2] = experiment: Trypsin protease activity, peptide substrate cleavage assay; format: biochemical; settings: FIG. 3
trypsin [3] = experiment: Resistance to trypsin digestion; format: in vitro ADME
Protocol: Approximately 20% of VEGF_CKP9.54.90 was cleaved at Arg13 within loop 2 after 24 h incubation with trypsin at 37° C.

Question: Which Kd (rabbit VEGF-A) does the source give for `CC[C@H](C)[C@@H]1NC(=O)[C@H](CC(N)=O)NC(=O)[C@@H](NC(=O)CN)CSSC[C@@H](C(=O)N[C@H](C(=O)N[C@H]2CSSC[C@@H](C(=O)NCC(=O)O)NC(=O)[C@H](CO)NC(=O)[C@H](CCC(N)=O)NC(=O)[C@H](Cc3ccc(O)cc3)NC(=O)[C@H](Cc3ccc(O)cc3)NC(=O)[C@H](CCC(N)=O)NC2=O)C(C)C)NC(=O)CNC(=O)[C@H](C)NC(=O)[C@H](CC(C)C)NC(=O)[C@@H]2CSSC[C@H](NC(=O)CNC(=O)[C@H](Cc3c[nH]c4ccccc34)NC(=O)[C@H](Cc3ccccc3)NC(=O)[C@@H]3CCCN3C(=O)[C@H](CC(C)C)NC(=O)[C@H](CCSC)NC1=O)C(=O)NCC(=O)N[C@@H](CCCNC(=N)N)C(=O)N[C@@H](CC(=O)O)C(=O)N[C@@H](Cc1ccccc1)C(=O)N[C@@H](CCC(=O)O)C(=O)N2` [VEGF_CKP9.54.90] (H-GCNIMLPFWGCGRDFECLAGCVCQYYQSCG-OH; disulfide 2-21, 11-17, 23-29; N-terminus and C-terminus assumed) here?
Answer: Its Kd is 1.14 nM.

Question: What about the ka (rabbit VEGF-A; rabbit, Table 30) of the same compound?
Answer: Its ka is 5.15 × 10^7.

Question: And the kd (rabbit VEGF-A; rabbit, Table 30)?
Answer: Its kd is 6.75 × 10^−2.

Question: What about the Kd (VEGF human 165) of the same compound?
Answer: Its Kd is 0.89 nM.

Question: What about the ka (VEGF human 165; human 165, Table 30) of the same compound?
Answer: Its ka is 1.58 × 10^7.

Question: What about the kd (VEGF human 165; human 165, Table 30) of the same compound?
Answer: The kd was 1.33 × 10^−2.

Question: And the Kd (VEGF mouse 164)?
Answer: Its Kd is 1.31 nM.

Question: What about the ka (VEGF mouse 164; mouse 164, Table 30) of the same compound?
Answer: Its ka is 8.71 × 10^6.

Question: And the kd (VEGF mouse 164; mouse 164, Table 30)?
Answer: Its kd is 1.01 × 10^−2.

Question: And the Kd (rat VEGF-A)?
Answer: The Kd was 0.9 nM.

Question: And the ka (rat VEGF-A; rat, Table 30)?
Answer: The ka was 1.72 × 10^7.

Question: And the kd (rat VEGF-A; rat, Table 30)?
Answer: Its kd is 1.35 × 10^−2.

Question: And the “binding to VEGF-A mutant F17A/M81A” value ([1]; F17A/M81A, relative to wild type VEGF-A)?
Answer: Its value is “reduced binding”.

Question: And the “enhancement of binding by K48A mutation” value ([1]; K48A, relative to wild type VEGF-A)?
Answer: The value was 2-3 fold.

Question: What about the “binding to VEGF-A mutant Q89A” value ([1]; Q89A, relative to wild type VEGF-A) of the same compound?
Answer: Its value is “reduced binding”.

Question: What about the “binding to VEGF-A mutant Y21A” value ([1]; Y21A, relative to wild type VEGF-A) of the same compound?
Answer: Its value is “reduced binding”.

Question: What about the Kd ([1]; hVEGF-A mutant K48A) of the same compound?
Answer: The Kd was 0.19 nM.

Question: And the ka ([1]; hVEGF-A mutant K48A)?
Answer: Its ka is 6.04 × 10^7.

Question: What about the kd ([1]; hVEGF-A mutant K48A) of the same compound?
Answer: Its kd is 0.0116.

Question: What about the Kd ([1]; hVEGF-A mutant Q89A) of the same compound?
Answer: The Kd was 8.8 nM.

Question: And the ka ([1]; hVEGF-A mutant Q89A)?
Answer: The ka was 1.71 × 10^7.

Question: And the kd ([1]; hVEGF-A mutant Q89A)?
Answer: Its kd is 0.1458.

Question: And the Kd ([1]; hVEGF-A mutant Y21A)?
Answer: Its Kd is 3.5 nM.

Question: What about the ka ([1]; hVEGF-A mutant Y21A) of the same compound?
Answer: The ka was 3.72 × 10^7.

Question: What about the kd ([1]; hVEGF-A mutant Y21A) of the same compound?
Answer: The kd was 0.1202.

Question: What about the “S/N (signal to noise ratio as compared to BSA control)” value (hVEGF(8-109)) of the same compound?
Answer: Its value is 29.5.

Question: And the ELISA (hVEGF(8-109); loop 2 variants based on 9.54 framework)?
Answer: Its ELISA is 2.3.

Question: And the “inhibition of trypsin protease activity” value (trypsin [2])?
Answer: The value was “do not inhibit”.

Question: What about the metabolised at 24 h (trypsin [3]; 24 h incubation with trypsin at 37° C., read-out: fraction cleaved at Arg13 within loop 2) of the same compound?
Answer: Its metabolised at 24 h is about 20%.

Question: What about the “resistance to trypsin digestion” value (trypsin [3]; FIG. 4) of the same compound?
Answer: Its value is “maintain a degree of resistance”.
